Non-standard residues stand in square brackets, D forms with d. Residues, ends and D or L forms follow the SMILES beside them. *: point of attachment. Acetyl(2-naphthyl) = O=C(Cc1ccc2ccccc2c1)*; dPhe(4-Cl) = N[C@H](Cc1ccc(Cl)cc1)C(=O)O; Ac6c = NC1(C(=O)O)CCCCC1; Heptanoyl = CCCCCCC(=O)*; Bn = c1ccc(C*)cc1
Experiments:
[1] = biological target: T1, MC4-R (Homo sapiens, UniProt P32245); assay: cAMP agonist stimulation, low receptor density system (0.1 ng/mL doxycycline); conditions: for Efficacy/Intrinsic Activity: 0.1 ng/mL doxycycline, low receptor density hMC4-R system, NDP-α-MSH maximal cAMP = 1.0
[2] = ICV food intake and body weight change; assay type: in vivo; conditions: rat, 1 nmol, 24 hours
Method: ICV food intake and body weight change. Change in food intake and body weight was evaluated for selected compounds. Rats with indwelling intracerebroventricular cannulas (ICV rats) were obtained from Hilltop Lab Animals, Inc. (Scottdale, Pa.). Animals were individually housed in conventional plexiglass hanging cages and maintained on a controlled 12 hour on/off light cycle. Water and powdered (LabDiet, 5P00 Prolab RMH 3000) or pelleted (Harlan Teklad 2018 18% Protein Rodent Diet) food was provided ad libitum. For 1 week before treatment, 24-hour food intake and body weight change was recorded to assess a baseline for the group during vehicle treatment. The rats were dosed ICV with vehicle or selected compounds (1-3 nmol). The changes in body weight and food intake for the 24 hour period after dosing were determined. The changes in body weight and food intake for the 48 hour and 72 hour periods after dosing were also measured to determine reversal of changes in body weight and food intake effects back to baseline levels.

[3] = biological target: T1, MC4-R; assay: cAMP agonist stimulation, high receptor density system (10 ng/mL doxycycline); conditions: for Efficacy/Intrinsic Activity: NDP-α-MSH maximal cAMP = 1.0
[4] = biological target: T1, MC4-R; assay: cAMP functional activity assay in HEK-293 cells, normal system; assay type: cell-based; parameters: expressed in transfected cells; host or cells: HEK-293; conditions: for intrinsic activity at MC4-R in a normal system / EC50: normal receptor density system; for intrinsic activity at MC4-R in a normal system: NDP-α-MSH = 1.0; for functional status at MC4-R in cAMP assay: normal system, 1 μM concentration where stated
Method: General method for EC50 determination in functional activity assay. […] Data analysis and EC50 values were determined using nonlinear regression analysis with Prism Graph-Pad software.
Functional status. The agonist/antagonist status with respect to MC1-R, MC-3R, MC4-R and MC5-R of certain compounds of the invention was determined. Antagonistic activity was determined by measuring the inhibition of α-MSH-induced or NDP-α-MSH-induced cAMP levels following exposure to graded doses of compounds as in the preceding descriptions.
Assay for agonist. Evaluation of the molecules to elicit a functional response in HEK-293 cells expressing MC4-R was accomplished by measuring the accumulation of intracellular cAMP following treatment. Confluent HEK-293 cells expressing MC4-R receptors were detached by enzyme free cell suspension buffer. […] The cells were plated in a 96 well plates at a density of 0.5×10^5 cells per well and pre-incubated for 30 minutes. Test compounds (dissolved in dimethylsulfoxide (DMSO) at a concentration range of 0.05-5000 nM) were added in a total assay volume of 200 μL and cells were incubated for 1 hour at 37° C. The concentration of DMSO was always held at 1% in the assay mixture. NDP-α-MSH was used as the reference agonist. […] Data analysis and EC50 values were determined by using nonlinear regression analysis with Prism Graph-Pad software. […] Compounds with a response ratio of less than 0.1 (10%) were evaluated for antagonistic activity.

[5] = biological target: MC3-R (Homo sapiens, UniProt P41968); assay: Competitive inhibition assay using [I^125]-NDP-α-MSH, hMC3-R membranes; assay type: binding; parameters: expressed in transfected cells; conditions: for inhibition at 1 µM: 1 μM test compound, read-out: Inhibition at 1 μM (NDP-α-MSH) In Normal System, MC3-R
Method: (§1) The ligand concentration used was 0.4 nM for MC3-R and MC5-R, 0.2 nM for MC4-R and 0.1 nM for B16-F10 (MC1-R) membranes. In certain experiments, hMC1-R was also employed.
(§2) The assay mixture was incubated for 90 minutes at room temperature, then filtered and the membranes washed three times with ice cold buffer. The filter was dried and counted in a gamma counter for remaining radioactivity bound to the membranes. […] Each assay was conducted in triplicate and the actual mean values are described, with results less than 0% reported as 0%.

[6] = biological target: T2, MC1-R (Mus musculus, UniProt Q01727); assay: Competitive inhibition assay using [I^125]-NDP-α-MSH, B-16 mouse melanoma cell membranes; assay type: binding; conditions: for inhibition at 1 µM: 1 μM test compound, read-out: Inhibition at 1 μM (NDP-α-MSH) In Normal System, MC1-R; for Ki: read-out: Ki (nM) (NDP-α-MSH) In Normal System, MC1-R
T2 construct: B-16 mouse melanoma cells (containing MC1-R); endogenous in cells
Method: as §1, §2

[7] = biological target: T1, MC4-R; assay: Competitive inhibition assay using [I^125]-NDP-α-MSH, hMC4-R membranes; assay type: binding; parameters: host or cells: TREx-293 (HEK-293 stably expressing Tet repressor); conditions: for inhibition at 1 µM: 1 μM test compound, read-out: Inhibition at 1 μM (NDP-α-MSH) In Normal System, MC4-R; for Ki: read-out: Ki (nM) (NDP-α-MSH) In Normal System, MC4-R
Method: as §1, §2

[8] = biological target: MC5-R (Homo sapiens, UniProt P33032); assay: Competitive inhibition assay using [I^125]-NDP-α-MSH, hMC5-R membranes; assay type: binding; parameters: expressed in transfected cells; conditions: for inhibition at 1 µM: 1 μM test compound, read-out: Inhibition at 1 μM (NDP-α-MSH) In Normal System, MC5-R; for Ki: read-out: Ki (nM) (NDP-α-MSH) In Normal System, MC5-R
Method: as §1, §2

[9] = Penile erection induction in male rats; assay type: in vivo; conditions: rat, IV; for penile erection response: 1 μg/kg
Method: Penile erection induction. The ability of compounds to induce penile erection (PE) in male rats was evaluated with selected compounds. Male Sprague-Dawley rats weighing 200-250 g were kept on a 12 hour on/off light cycle with food and water ad libitum. All behavioral studies were performed between 10 A.M. and 5 P.M. Groups of 4-8 rats were treated with compounds at a variety of doses via intravenous (IV) or intracerebroventricular (ICV) routes. Immediately after treatment, rats were placed into individual polystyrene cages (27 cm long, 16 cm wide, and 25 cm high) for behavioral observation. […] Controls utilized carrier without the test compound. Mean PEs in control groups were 0.17 to 0.5 PEs/rat by IV administration in various experiments and between 1-2 PEs/rat by ICV administration in various experiments, and thus only PEs with statistically relevant increases over the mean PEs in control groups are reported as inducing PEs. A PE response in IV animals greater than the mean PEs in control groups but less than 1.0 PEs/rat, particularly with less than all animals responding, was treated as equivocal, and not necessarily distinguishable from vehicle control. In selected instances, compounds with equivocal results in the IV model were tested for penile response in an ICV model, and compounds without a statistically relevant increase over the mean PEs in ICV control groups were determined to not induce PEs.

[10] = 10 ng/mL doxycycline, high receptor density hMC4-R system

Chain of MC3-R (P41968 whole entry): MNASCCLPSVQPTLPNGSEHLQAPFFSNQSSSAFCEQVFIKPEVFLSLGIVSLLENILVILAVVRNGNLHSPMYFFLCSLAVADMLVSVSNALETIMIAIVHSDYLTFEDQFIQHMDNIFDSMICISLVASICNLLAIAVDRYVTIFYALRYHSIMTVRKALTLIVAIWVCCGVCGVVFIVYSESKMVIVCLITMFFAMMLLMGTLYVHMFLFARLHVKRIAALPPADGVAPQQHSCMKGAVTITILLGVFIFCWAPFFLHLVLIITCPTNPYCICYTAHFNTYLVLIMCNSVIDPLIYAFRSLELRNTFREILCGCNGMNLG
T2 sequence (Q01727 whole entry): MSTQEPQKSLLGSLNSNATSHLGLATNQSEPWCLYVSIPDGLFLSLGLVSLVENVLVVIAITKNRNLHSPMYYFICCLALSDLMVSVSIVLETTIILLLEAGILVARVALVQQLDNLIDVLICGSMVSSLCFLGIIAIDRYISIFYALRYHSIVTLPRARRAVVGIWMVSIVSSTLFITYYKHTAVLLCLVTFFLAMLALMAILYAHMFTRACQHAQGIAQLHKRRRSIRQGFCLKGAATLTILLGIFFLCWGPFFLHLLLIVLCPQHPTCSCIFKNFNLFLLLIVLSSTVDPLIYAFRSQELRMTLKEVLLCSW
Chain of MC5-R (P33032 whole entry): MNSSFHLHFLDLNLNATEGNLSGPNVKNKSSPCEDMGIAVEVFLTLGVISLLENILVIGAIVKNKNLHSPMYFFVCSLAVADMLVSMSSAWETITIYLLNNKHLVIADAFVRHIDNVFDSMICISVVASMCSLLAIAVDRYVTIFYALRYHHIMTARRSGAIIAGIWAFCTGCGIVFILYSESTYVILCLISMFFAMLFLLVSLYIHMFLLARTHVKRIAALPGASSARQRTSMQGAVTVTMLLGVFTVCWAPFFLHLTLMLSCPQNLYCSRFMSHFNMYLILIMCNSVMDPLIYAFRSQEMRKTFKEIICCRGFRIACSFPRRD
T1 sequence (P32245 whole entry): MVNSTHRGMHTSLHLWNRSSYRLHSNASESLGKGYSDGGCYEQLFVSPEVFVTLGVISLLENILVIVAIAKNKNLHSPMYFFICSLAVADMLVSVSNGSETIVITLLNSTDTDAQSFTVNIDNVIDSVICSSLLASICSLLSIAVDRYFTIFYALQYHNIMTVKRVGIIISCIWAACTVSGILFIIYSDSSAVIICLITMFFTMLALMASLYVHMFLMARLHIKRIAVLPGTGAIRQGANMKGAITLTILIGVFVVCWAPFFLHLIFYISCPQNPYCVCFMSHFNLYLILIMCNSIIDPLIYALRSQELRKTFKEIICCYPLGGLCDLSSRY

Row | Compound | Efficacy/Intrinsic Activity [1] | decrease in body weight [2] | decrease in food intake [2] | Efficacy/Intrinsic Activity [3, 10] | intrinsic activity at MC4-R in a normal system [4] | functional status at MC4-R in cAMP assay [4] | inhibition at 1 µM [5] | inhibition at 1 µM [6] | EC50 [1] | inhibition at 1 µM [7] | Ki [7] | inhibition at 1 µM [8] | Ki [8] | EC50 [3] | EC50 [4] | Ki [6] | Penile Erection IV [9] | penile erection response [9] | Ki ([5]; read-out: Ki (nM) (NDP-α-MSH) In Normal System, MC3-R) | EC50 [3, 10]
1 | N=C(N)NCCC[C@H](NC(=O)[C@@H](Cc1ccc(Cl)cc1)NC(=O)C1(NC(=O)Cc2ccc3ccccc3c2)CCCCC1)C(=O)N[C@@H](Cc1c[nH]c2ccccc12)C(N)=O [Example 24, 2-naphthylacetyl-1-amino-1-cyclohexane-carbonyl-D-Phe(4-Cl)-Arg-Trp-NH2] ({Acetyl(2-naphthyl)}-[Ac6c][dPhe(4-Cl)]RW-NH2) | None | 1% | 21% | None | 0.2 | partial agonist (intrinsic activity between 0.1 (10%) and 0.7 (70%) is classified as a partial agonist) | – | – | – | – | – | – | – | – | – | – | – | – | – | –
2 | CCNC(=O)[C@@H]1CCCCNC(=O)C[C@H](NC(C)=O)C(=O)N[C@@H](Cc2c[nH]cn2)C(=O)N[C@H](Cc2ccccc2)C(=O)N[C@@H](CCCNC(=N)N)C(=O)N[C@@H](Cc2c[nH]c3ccccc23)C(=O)N1 [Example 40, Ac-cyclo(-Asp-His-D-Phe-Arg-Trp-Lys)-NH—CH2—CH3] | – | – | – | – | – | – | 65% | 96% | 0.0031 µM | 96% | 6 nM | 16% | > 1000 nM | 0.0005 µM | 3 nM | – | – | – | – | –
3 | NCCCC[C@H]1C(=O)N(CCc2ccc3ccccc3c2)CCN1C(=O)[C@@H](Cc1ccc(Cl)cc1Cl)NC(=O)[C@@H]1CC[C@H](c2ccccc2)N1 [Example 18, (2S,5R)-5-phenyl-pyrrolidine-2-carboxylic acid [(R)-2-[(S)-2-(4-amino-butyl)-4-(2-naphthalen-2-yl-ethyl)-3-oxo-piperazin-1-yl]-1-(2,4-dichloro-benzyl)-2-oxo-ethyl]-amide] | None | 2% | 31% | 0.29 | 0.2 | partial agonist (intrinsic activity between 0.1 (10%) and 0.7 (70%) is classified as a partial agonist) | 18% | 0% | – | 92% | 50 nM | 51% | 789 nM | 0.281 µM | – | 1370 nM | – | – | – | –
4 | NCCCC[C@H]1C(=O)N(CCc2ccc3ccccc3c2)CCN1C(=O)[C@@H](Cc1ccc(Cl)cc1Cl)NC(=O)c1ccc(Oc2ccccc2)cc1 [Example 21, N—[(R)-2-[(S)-2-(4-Amino-butyl)-4-(2-naphthalen-2-yl-ethyl)-3-oxo-piperazin-1-yl]-1-(2,4-dichloro-benzyl)-2-oxo-ethyl]-4-phenoxy-benzamide] | None | 1% | 2% | None | – | no intrinsic activity (intrinsic activity below 0.1 (10%) is classified as inactive or having no intrinsic activity) | 51% | 35% | – | 99% | – | 51% | – | – | – | – | No | no penile erection response | – | –
5 | CCCCCCC(=O)N[C@H](C(=O)N[C@H](Cc1ccc(Cl)cc1)C(=O)N[C@@H](CCCNC(=N)N)C(=O)N[C@@H](Cc1c[nH]c2ccccc12)C(N)=O)[C@@H](C)OCc1ccccc1 [Example 23, Heptanoyl-Thr(Bzl)-D-Phe(4-Cl)-Arg-Trp-NH2] (Heptanoyl-T(Bn)[dPhe(4-Cl)]RW-NH2) | None | 1% | 18% | 0.75 | 0.4 | partial agonist (intrinsic activity between 0.1 (10%) and 0.7 (70%) is classified as a partial agonist) | – | – | – | – | – | – | – | 0.184 µM | – | – | No | no penile erection response | – | –
6 | (E)-N—[(R)-2-[(S)-2-(4-Amino-butyl)-4-(2-naphthalen-2-yl-ethyl)-3-oxo-piperazin-1-yl]-1-(2,4-dichloro-benzyl)-2-oxo-ethyl]-3-phenyl-acrylamide [Example 20] | None | 3% | 4% | 0.38 | 0.2 | partial agonist (intrinsic activity between 0.1 (10%) and 0.7 (70%) is classified as a partial agonist) | – | – | – | – | 6 nM | – | 398 nM | – | 112 nM | 502 nM | No | no penile erection response | 648 nM | 0.215 µM
